± gives the expanded uncertainty stated by the source.
Legend:
[1] = molar enthalpy of vaporization or sublimation; settings: 303 K; Crystal 2; Static calorimetry
[2] = Calculated from knudsen effusion weight loss

molar enthalpy [1]	vapor or sublimation pressure ([2]; 288.36 K, Crystal 2)	vapor or sublimation pressure ([2]; 293.31 K, Crystal 2)	vapor or sublimation pressure ([2]; 298.28 K, Crystal 2)	vapor or sublimation pressure ([2]; 303.22 K, Crystal 2)	vapor or sublimation pressure ([2]; 308.19 K, Crystal 2)	vapor or sublimation pressure ([2]; 313.16 K, Crystal 1)	vapor or sublimation pressure ([2]; 314.21 K, Crystal 1)	vapor or sublimation pressure ([2]; 314.65 K, Crystal 1)	vapor or sublimation pressure ([2]; 315.63 K, Crystal 1)	vapor or sublimation pressure ([2]; 316.65 K, Crystal 1)	vapor or sublimation pressure ([2]; 318.12 K, Crystal 1)	vapor or sublimation pressure ([2]; 320.59 K, Crystal 1)	vapor or sublimation pressure ([2]; 323.03 K, Crystal 1)	vapor or sublimation pressure ([2]; 318.02 K, Crystal)	vapor or sublimation pressure ([2]; 322.7 K, Crystal)	vapor or sublimation pressure ([2]; 322.99 K, Crystal)	vapor or sublimation pressure ([2]; 327.9 K, Crystal)	vapor or sublimation pressure ([2]; 332.6 K, Crystal)	SMILES
17.15 ± 0.151 kcal/mol	0.001603 ± 0.00015 kPa	0.002687 ± 0.00027 kPa	0.004279 ± 0.00045 kPa	0.006896 ± 0.00077 kPa	0.0111 ± 0.0013 kPa	0.0169 ± 0.0021 kPa	0.01766 ± 0.0022 kPa	0.01847 ± 0.0023 kPa	0.01952 ± 0.0025 kPa	0.0215 ± 0.0028 kPa	0.02411 ± 0.0032 kPa	0.02925 ± 0.0039 kPa	0.03472 ± 0.0048 kPa	–	–	–	–	–	BrC12CC3CC(CC(C3)C1)C2 [1-bromotricyclo[3.3.1.1(3,7)]decane]
–	–	–	–	–	–	–	–	–	–	–	–	–	–	0.001022 ± 8.9e-05 kPa	0.001693 ± 0.00016 kPa	0.001744 ± 0.00016 kPa	0.00289 ± 0.00029 kPa	0.004567 ± 0.00049 kPa	O=C(O)c1ccccc1 [benzoic acid]
